Test results taken from patent US11273152B2, “TRPV2 antagonists” (Instituto de Medicina Molecular João Lobo Antunes, priority 2017, dated 2022).
Entries after “also recorded” stand apart in the source; their conditions may differ.

Experiments:
[1] = system: human, ligand-gated TRP channels; test: TRP channel panel screen, activation; format: cell-based; details: TRPV, TRPC, TRPM, TRPA panel
HepG2 cells = test: Wound-healing scratch assay, HepG2; format: cell-based; details: 24-hour
TRPV4 = TRPV4 (Homo sapiens, UniProt Q9HBA0); test: Fluorescence cell-based assay, TRPV4; details: calcium 5 dye, duplicate
Method: (§1) The assays were performed at SB Discovery (Glasgow, UK) on a fee-for-service basis. Human TRP cells were trypsinised, counted and seeded in black, clear-bottomed 96 well plates at a density of 50,000 cells per well in 100 μL volume and incubated overnight. Next day, the cells were loaded with calcium 5 dye or membrane potential dye. TRPV1-5, TRPA1, TRPM2, TRPM3, and TRPM8 were tested using the calcium 5 dye. TRPC1, TRPC3-7, and TRPM4-5 were tested using the membrane potential dye. Both dye solutions were made up in HEPES buffered Hank's balanced salt solution (HBSS). Dye solution (90 μL) was added to the wells and incubated at 37° C. for 1 hour. Test compounds and standard inhibitors (10 μL) were then added to the wells and incubated at room temperature for 10 minutes. The plates were then placed in the flexstation and fluorescence monitored every 1.52 seconds. After 20 seconds agonist was added and the fluorescence monitored for 2 minutes at 485 nm/525 nm and 530 nm/565 nm, Ex/Em, for the calcium 5 dye and the membrane potential dye respectively. Controls-TRPV1: capsazepine; TRPV2: tranilast; TRPV3: ruthenium red; TRPV4: ruthenium red; TRPV5: Gd^3+; TRPA1, ruthenium red; TRPC1: Gd^3+; TRPC3: Pyr3; TRPC4: ML 204; TRPC5: ML 204; TRPC6: ML 204; TRPC7: SKF 96365; TRPM2: 2-APB; TRPM3: Mef acid; TRPM4: clotrimazole; TRPM5: TPPO; TRPM8: 2-APB. […]

TRPM8 = TRPM8 (Homo sapiens, UniProt Q7Z2W7); test: Fluorescence cell-based assay, TRPM8; details: calcium 5 dye, duplicate
Method: as §1

TRPV2 = target: T1, TRPV2 (Homo sapiens, UniProt Q9Y5S1); test: Fluorescence cell-based assay, TRPV2 (cannabidiol-evoked calcium influx); details: TRPV2
T1 sequence (Q9Y5S1 1-764): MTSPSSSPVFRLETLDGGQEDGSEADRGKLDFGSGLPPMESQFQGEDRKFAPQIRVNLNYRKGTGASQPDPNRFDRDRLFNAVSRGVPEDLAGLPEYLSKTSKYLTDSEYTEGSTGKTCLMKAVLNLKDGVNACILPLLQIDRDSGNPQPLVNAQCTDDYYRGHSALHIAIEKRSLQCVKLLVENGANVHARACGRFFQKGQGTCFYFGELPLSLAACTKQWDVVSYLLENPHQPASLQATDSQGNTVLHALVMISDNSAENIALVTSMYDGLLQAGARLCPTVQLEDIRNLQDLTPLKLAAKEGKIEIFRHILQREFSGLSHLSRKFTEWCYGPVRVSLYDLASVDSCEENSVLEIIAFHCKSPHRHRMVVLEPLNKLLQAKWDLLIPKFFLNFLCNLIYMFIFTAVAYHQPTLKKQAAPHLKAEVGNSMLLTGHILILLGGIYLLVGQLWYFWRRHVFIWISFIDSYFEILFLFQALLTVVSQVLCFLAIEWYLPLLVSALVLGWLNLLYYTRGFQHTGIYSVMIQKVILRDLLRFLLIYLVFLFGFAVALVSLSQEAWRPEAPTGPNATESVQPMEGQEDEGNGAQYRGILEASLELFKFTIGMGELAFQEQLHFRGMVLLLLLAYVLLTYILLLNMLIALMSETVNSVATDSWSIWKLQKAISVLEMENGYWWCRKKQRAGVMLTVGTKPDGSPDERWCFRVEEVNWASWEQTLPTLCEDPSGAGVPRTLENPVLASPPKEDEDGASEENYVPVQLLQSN
Method: The assays were performed at SB Discovery (Glasgow, UK) on a fee-for-service basis. Human TRP cells were trypsinised, counted and seeded in black, clear-bottomed 96 well plates at a density of 50,000 cells per well in 100 μL volume and incubated overnight. Next day, the cells were loaded with calcium 5 dye or membrane potential dye. TRPV1-5, TRPA1, TRPM2, TRPM3, and TRPM8 were tested using the calcium 5 dye. TRPC1, TRPC3-7, and TRPM4-5 were tested using the membrane potential dye. Both dye solutions were made up in HEPES buffered Hank's balanced salt solution (HBSS). Dye solution (90 μL) was added to the wells and incubated at 37° C. for 1 hour. Test compounds and standard inhibitors (10 μL) were then added to the wells and incubated at room temperature for 10 minutes. The plates were then placed in the flexstation and fluorescence monitored every 1.52 seconds. After 20 seconds agonist was added and the fluorescence monitored for 2 minutes at 485 nm/525 nm and 530 nm/565 nm, Ex/Em, for the calcium 5 dye and the membrane potential dye respectively. Controls-TRPV1: capsazepine; TRPV2: tranilast; TRPV3: ruthenium red; TRPV4: ruthenium red; TRPV5: Gd^3+; TRPA1, ruthenium red; TRPC1: Gd^3+; TRPC3: Pyr3; TRPC4: ML 204; TRPC5: ML 204; TRPC6: ML 204; TRPC7: SKF 96365; TRPM2: 2-APB; TRPM3: Mef acid; TRPM4: clotrimazole; TRPM5: TPPO; TRPM8: 2-APB. Control data was in all cases within historical range.

TRPC3 = TRPC3 (Homo sapiens, UniProt Q13507); test: Fluorescence cell-based assay, TRPC3; details: membrane potential dye, duplicate
Method: as §1

rabbit TRPV2 orthologue = test: Isothermal titration calorimetry, rabbit TRPV2; format: binding; details: rabbit TRPV2 constructs; 100 μM
[2] = target: T2, human TRPV2-RFP fusion protein (Homo sapiens, UniProt Q9Y5S1); test: Intracellular calcium imaging in HEK293 transfected with TRPV2-RFP; format: cell-based; details: CBD 4 μM; 1 at 5 μM; 300 s post stimulation
T2 construct: Itaru Kojima, Gunma University; host or cells: HEK293, transient
Method: Cells (ATCC) were grown to 50% confluency in DMEM (Gibco) supplemented with 10% FBS (Gibco), GlutaMax (Gibco), MEM and NEAA (Gibco), 4.5 g/L glucose and 0.11 g/L sodium pyruvate. Cells were seeded in μ-ibidi 8 well plates and transfected with TRPV2-RFP^34 (kindly gifted by Prof. Itaru Kojimu Gunma University, Japan). After 48 h of incubation, cells were subjected to calcium imaging. Intracellular calcium measurements were performed with Fura-2 AM (Life Technologies) and modified from previously described studies.^12 In short, 1 hour before the measurement, cells were loaded with 5 μM Fura-2-AM for 45 minutes. Cell medium was replaced by Tyrod's solution (119 mM NaCl, 5 mM KCl, 2 mM CaCl2, 2 mM MgCl2, 6 g/L glucose, 25 mM HEPES pH 7.4). Simultaneously, the respective treatment was added to the cells (final concentration of 1% DMSO (control), 5 μM piperlongumine and 10 μM tranilast) and cells were allowed to re-adjustment for 15 minutes. Fura-2 AM emissions from 340 nm and 380 nm excitation were recorded for 1 minute before TRPV2 was activated by addition of 4 μM or 20 μM cannabidiol (CBD). Image analysis was done using the MetaFluor Analyst software. The statistical analysis was performed with astatsa.com. After calcium imaging acquisition, the cells were immediately fixed with 4% paraformaldehyde for 15 min. […]

TRPV5 = TRPV5 (Homo sapiens, UniProt Q9NQA5); test: Fluorescence cell-based assay, TRPV5; details: calcium 5 dye, duplicate
Method: as §1

TRPC6 = TRPC6 (Homo sapiens, UniProt Q9Y210); test: Fluorescence cell-based assay, TRPC6; details: membrane potential dye, duplicate
Method: as §1

TRPV1 = TRPV1 (Homo sapiens, UniProt Q8NER1); test: Fluorescence cell-based assay, TRPV1; details: calcium 5 dye, duplicate
Method: as §1

LNCaP cell line = test: Cell viability, LNCaP; format: cell-based; details: 5 and 10 μM, 24 hours
Method: 5,000 cells/well were seeded in 96 well plates with DMEM containing 2% FBS. The next day piperlongumine was added at various concentrations. […] At 24, 48 and 72 hours the media was removed and replaced with CellTiter-Blue (Promega, 1:20 in media). The plate was incubated for 90 minutes before measuring fluorescence intensity.

TRPV5, sequence (Q9NQA5 whole entry): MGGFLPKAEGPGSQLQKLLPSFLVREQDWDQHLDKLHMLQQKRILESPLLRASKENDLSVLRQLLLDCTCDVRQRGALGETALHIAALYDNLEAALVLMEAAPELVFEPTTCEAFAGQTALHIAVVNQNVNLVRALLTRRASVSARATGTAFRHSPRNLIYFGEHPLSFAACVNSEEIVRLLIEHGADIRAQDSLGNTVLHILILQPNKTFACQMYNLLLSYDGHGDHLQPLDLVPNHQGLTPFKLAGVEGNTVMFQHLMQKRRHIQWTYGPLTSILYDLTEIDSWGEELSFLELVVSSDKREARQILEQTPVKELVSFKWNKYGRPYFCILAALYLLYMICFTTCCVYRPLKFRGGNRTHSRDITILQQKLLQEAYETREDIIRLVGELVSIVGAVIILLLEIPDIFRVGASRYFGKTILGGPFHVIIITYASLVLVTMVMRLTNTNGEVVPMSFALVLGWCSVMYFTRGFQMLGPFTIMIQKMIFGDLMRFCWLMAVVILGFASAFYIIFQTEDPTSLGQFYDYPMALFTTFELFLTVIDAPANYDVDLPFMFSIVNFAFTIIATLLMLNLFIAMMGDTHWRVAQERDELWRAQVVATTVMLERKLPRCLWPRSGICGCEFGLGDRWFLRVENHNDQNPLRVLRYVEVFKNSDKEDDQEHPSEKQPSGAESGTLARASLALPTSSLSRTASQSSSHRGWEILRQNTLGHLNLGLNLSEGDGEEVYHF
TRPM8, sequence (Q7Z2W7 whole entry): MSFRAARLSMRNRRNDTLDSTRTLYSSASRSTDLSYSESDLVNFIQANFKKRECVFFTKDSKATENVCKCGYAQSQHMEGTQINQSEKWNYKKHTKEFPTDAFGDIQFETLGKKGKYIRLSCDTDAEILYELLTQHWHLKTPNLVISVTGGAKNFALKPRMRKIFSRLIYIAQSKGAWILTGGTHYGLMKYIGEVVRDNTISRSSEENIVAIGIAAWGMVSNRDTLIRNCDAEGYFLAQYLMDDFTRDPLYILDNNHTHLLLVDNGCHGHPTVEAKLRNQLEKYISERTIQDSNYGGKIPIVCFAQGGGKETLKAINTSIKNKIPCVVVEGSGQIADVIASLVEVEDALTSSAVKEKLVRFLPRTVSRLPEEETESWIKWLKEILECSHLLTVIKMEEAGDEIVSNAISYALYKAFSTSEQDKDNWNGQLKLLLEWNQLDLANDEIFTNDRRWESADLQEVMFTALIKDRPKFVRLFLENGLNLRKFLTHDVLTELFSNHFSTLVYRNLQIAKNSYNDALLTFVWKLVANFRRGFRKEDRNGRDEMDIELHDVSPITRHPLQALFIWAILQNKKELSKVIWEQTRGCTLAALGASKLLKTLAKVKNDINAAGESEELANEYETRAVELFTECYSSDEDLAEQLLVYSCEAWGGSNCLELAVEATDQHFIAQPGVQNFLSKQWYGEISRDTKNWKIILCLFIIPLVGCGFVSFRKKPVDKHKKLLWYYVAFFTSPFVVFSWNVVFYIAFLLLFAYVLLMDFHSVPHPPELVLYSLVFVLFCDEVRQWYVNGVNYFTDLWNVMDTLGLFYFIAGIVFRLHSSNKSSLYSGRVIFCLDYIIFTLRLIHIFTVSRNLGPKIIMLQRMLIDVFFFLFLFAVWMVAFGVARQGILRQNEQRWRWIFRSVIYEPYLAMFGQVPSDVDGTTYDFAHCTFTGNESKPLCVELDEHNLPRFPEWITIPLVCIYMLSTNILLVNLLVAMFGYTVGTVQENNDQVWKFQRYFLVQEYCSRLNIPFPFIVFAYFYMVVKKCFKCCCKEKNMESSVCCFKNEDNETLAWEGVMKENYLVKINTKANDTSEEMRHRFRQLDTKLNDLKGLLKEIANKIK
TRPV4, sequence (Q9HBA0 whole entry): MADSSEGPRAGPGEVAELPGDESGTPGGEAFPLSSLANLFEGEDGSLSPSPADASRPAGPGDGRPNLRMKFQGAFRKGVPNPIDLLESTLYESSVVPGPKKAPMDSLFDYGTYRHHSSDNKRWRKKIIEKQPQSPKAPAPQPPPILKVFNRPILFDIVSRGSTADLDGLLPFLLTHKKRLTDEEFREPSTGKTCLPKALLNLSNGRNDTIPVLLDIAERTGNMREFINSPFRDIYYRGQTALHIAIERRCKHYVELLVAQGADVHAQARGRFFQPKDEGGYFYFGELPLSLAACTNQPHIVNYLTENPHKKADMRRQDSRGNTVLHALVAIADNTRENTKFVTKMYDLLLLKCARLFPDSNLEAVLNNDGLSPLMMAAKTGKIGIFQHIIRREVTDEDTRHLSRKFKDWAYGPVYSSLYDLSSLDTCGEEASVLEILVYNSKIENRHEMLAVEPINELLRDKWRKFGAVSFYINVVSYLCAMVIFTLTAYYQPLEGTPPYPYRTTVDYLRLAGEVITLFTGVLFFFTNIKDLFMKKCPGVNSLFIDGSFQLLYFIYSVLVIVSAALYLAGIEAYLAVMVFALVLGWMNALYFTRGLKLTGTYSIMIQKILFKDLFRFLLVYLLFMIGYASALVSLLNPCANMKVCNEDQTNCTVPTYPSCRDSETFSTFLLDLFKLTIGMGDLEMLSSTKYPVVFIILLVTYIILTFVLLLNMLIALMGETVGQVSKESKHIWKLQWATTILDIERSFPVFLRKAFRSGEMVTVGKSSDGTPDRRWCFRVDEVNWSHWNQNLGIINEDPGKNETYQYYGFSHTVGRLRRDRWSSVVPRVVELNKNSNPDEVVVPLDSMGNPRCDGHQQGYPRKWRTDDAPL
TRPC6, sequence (Q9Y210 whole entry): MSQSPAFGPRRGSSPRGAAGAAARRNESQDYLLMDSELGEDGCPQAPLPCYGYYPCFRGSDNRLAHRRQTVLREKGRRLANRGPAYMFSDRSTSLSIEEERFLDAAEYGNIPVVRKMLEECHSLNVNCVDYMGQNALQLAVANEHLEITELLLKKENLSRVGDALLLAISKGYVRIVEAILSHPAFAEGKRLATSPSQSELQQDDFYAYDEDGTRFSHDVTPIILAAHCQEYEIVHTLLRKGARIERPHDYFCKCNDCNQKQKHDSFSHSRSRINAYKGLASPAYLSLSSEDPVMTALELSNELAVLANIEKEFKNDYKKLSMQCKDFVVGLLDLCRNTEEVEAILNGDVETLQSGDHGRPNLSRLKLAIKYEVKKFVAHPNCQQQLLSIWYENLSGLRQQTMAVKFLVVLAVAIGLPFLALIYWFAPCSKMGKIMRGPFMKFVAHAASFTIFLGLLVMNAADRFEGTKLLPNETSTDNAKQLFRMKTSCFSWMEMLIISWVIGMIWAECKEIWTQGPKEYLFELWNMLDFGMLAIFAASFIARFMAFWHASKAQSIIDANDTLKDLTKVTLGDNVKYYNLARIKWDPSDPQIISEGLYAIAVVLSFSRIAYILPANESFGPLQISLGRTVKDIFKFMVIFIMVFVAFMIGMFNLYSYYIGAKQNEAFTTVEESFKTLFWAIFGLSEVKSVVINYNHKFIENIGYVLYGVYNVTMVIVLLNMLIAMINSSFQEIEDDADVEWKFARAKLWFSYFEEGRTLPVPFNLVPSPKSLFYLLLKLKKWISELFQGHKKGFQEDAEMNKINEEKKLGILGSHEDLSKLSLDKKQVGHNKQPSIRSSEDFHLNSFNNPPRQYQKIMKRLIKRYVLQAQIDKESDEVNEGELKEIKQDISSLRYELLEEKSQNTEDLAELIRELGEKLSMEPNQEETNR
TRPV1, sequence (Q8NER1 whole entry): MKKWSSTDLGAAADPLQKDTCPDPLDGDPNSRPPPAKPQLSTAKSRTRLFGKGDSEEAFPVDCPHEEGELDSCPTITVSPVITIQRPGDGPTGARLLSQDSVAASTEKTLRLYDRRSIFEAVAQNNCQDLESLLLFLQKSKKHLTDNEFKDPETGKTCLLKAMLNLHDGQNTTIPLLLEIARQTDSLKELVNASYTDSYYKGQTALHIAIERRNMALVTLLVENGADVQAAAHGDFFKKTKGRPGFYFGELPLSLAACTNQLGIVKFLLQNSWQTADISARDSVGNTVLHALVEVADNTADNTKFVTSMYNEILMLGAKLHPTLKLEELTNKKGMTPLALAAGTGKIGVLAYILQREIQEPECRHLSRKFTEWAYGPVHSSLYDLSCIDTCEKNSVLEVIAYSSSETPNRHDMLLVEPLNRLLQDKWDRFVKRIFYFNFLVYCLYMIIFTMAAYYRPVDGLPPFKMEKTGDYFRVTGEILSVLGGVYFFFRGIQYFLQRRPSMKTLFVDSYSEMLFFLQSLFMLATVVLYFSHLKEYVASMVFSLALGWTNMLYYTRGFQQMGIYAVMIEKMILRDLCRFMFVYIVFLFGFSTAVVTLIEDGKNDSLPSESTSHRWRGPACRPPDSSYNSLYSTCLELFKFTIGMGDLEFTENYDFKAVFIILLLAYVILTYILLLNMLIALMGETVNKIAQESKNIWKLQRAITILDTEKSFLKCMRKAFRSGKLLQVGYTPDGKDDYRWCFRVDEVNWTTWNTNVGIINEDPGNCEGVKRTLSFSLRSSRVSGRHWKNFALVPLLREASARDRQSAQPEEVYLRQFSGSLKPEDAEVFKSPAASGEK

COc1cc(/C=C/C(=O)N2CCC=CC2=O)cc(OC)c1OC [Compound 1, piperlongumine]
Activation of the assayed TRP channels [1]: did not activate any of the assayed channels
Cell death during wound-healing assay (HepG2 cells; 5 μM): did not induce significant cell death
Cell migration, wound healing (HepG2 cells; 1 at 5 μM): significantly reduced migration; also recorded: inhibits cancer cell migration in a Ca^2+-dependent manner
IC50 (TRPV4): > 100 µM
IC50 (TRPM8): > 100 µM
Ligand Efficiency (TRPV2): 0.32
IC50 (TRPV2; calcium 5 dye, spread in log units, duplicate, read-out: IC50/μM ± SD): 4.6 µM
IC50 (TRPC3): > 100 µM
Binding by isothermal titration calorimetry (rabbit TRPV2 orthologue): did not bind
Inhibition of CBD evoked calcium influx in transfected HEK293 cells [2]: significant difference between control and 1 (p<0.001)
IC50 (TRPV5): > 100 µM
IC50 (TRPC6): > 100 µM
IC50 (TRPV1): > 100 µM
Cell viability (LNCaP cell line): cell viability was compromised
